According to patent US9315475B2 (MERCK SHARP & DOHME CORP., priority 2011, dated 2016):
Read-outs that look alike come from different tables or passages of the source.

Biological target: T1, wildtype HIV-1 protease (Human immunodeficiency virus type 1 group M subtype B, UniProt P04585)
T1 construct: the wildtype HIV-1 protease (which was expressed in Escherichia coli); made in house; host or cells: Escherichia coli
Assay: Assay for inhibition of microbial expressed HIV protease (Pepcleav)
Type: biochemical
Experimental: Assay for Inhibition of Microbial Expressed HIV Protease (“Pepcleav”)
Studies of the inhibition of the wildtype HIV-1 protease (which was expressed in Escherichia coli) were carried out with a peptide substrate [Val-Ser-Gln-Asn-(βnaphthyl)Ala-Pro-Ile-Val (SEQ ID NO:1)]. The inhibitor is first preincubated with the HIV-1 protease (wild type) enzyme in assay buffer (50 mM sodium acetate, pH 5.5, 100 mM NaCl, and 0.1% BSA) for 30 minutes at room temperature. Substrate is added to 400 micromolar in a total volume of 20 microliters containing 20 picomolar HIV-1 protease (final) and the reaction is incubated for 1 hour at 30° C. The reaction is quenched with the addition of formic acid and indinavir to 0.012% and 150 nM final concentrations, respectively. The product formation is determined after separation of product and substrate on a Zorbax Eclipse XDB-C 18 column connected to an API 4000 mass spectrometer (Applied Biosystems) with multiple reaction monitoring (transitions were 644.5/428.9 and 615.4/422.2 (M1/M3) for product and indinavir respectively). The extent of inhibition of the reaction is determined from the peak area of the products.

[1] = wild type HIV-1 protease expressed in E. coli, peptide substrate, pH 5.5, mean of at least two independent experiments, read-out: Pepcleav

SMILES	IC50 [1] [nM]	IC50 (Pepcleav (nM)) [nM]
Cc1cccc(NC(=O)[C@@H](N)C(c2ccc(F)cc2)c2ccc(F)cc2)c1CC[C@@H]1CN[C@H](COC(=O)NCC(F)(F)F)CO1 [Example 226, 4-fluoro-β-(4-fluorophenyl)-N-(3-methyl-2-{2-[(2R,5S)-5-({[(2,2,2-trifluoro-ethyl)carbamoyl]oxy}methyl)morpholin-2-yl]ethyl}phenyl)-L-phenylalaninamide]	360	–
N[C@H](C(=O)Nc1ccc(F)cc1CC[C@@H]1CN[C@H](COC(=O)NCC(F)(F)F)CO1)C(c1ccccc1)c1ccccc1 [Example 196, N-(4-fluoro-2-{2-[(2R,5S)-5-({[(2,2,2-trifluoroethyl)carbamoyl]oxy}methyl)morpholin-2-yl]ethyl}phenyl)-β-phenyl-L-phenylalaninamide]	79	–
COC(=O)N[C@H](C(=O)Nc1cnccc1CC[C@@H]1CN[C@H](COC(=O)NCC(F)(F)F)CO1)C(c1ccccc1)c1ccccc1 [Example 34, Nα-(methoxycarbonyl)-β-phenyl-N-(4-{2-[(2R,5S)-5-({[(2,2,2-trifluoroethyl)carbamoyl]oxy}methyl)morpholin-2-yl]ethyl}pyridin-3-yl)-L-phenylalaninamide]	14	–
N[C@H](C(=O)Nc1cncc(F)c1OC[C@@H]1CN[C@H](COC(=O)NCC(F)(F)F)CO1)C(c1ccc(F)cc1)c1ccc(F)cc1 [Example 203, 4-fluoro-β-(4-fluorophenyl)-N-(5-fluoro-4-{[(2S,5S)-5-({[(2,2,2-trifluoroethyl)carbamoyl]oxy}methyl)morpholin-2-yl]methoxy}pyridin-3-yl)-L-phenylalaninamide]	28	–
COC(=O)N[C@H](C(=O)Nc1ccccc1CC[C@@H]1CN[C@H](COC(=O)N2CCCC2)CO1)C(c1ccccc1)c1ccccc1 [Example 27, [(3S,6R)-6-[2-[2-[[(2S)-2-(methoxycarbonylamino)-3,3-diphenyl-propanoyl]amino]phenyl]ethyl]morpholin-3-yl]methyl pyrrolidine-1-carboxylate]	180	–
N[C@H](C(=O)Nc1cccc(F)c1CC[C@@H]1CN[C@H](COC(=O)NCC(F)(F)F)CO1)[C@H](c1ccccc1)c1ccc(Oc2ccccc2)cc1 [Example 227, (βR)-N-(3-fluoro-2-{2-[(2R,5S)-5-( {[(2,2,2-trifluoroethyl)carbamoyl]oxy}methyl)morpholin-2-yl]ethyl}phenyl)-O,β-diphenyl-L-tyrosinamide]	340	–
COC(=O)N[C@H](C(=O)Nc1ccccc1CC[C@@H]1CN[C@H](CNS(=O)(=O)c2ccc(N)cc2)CO1)C(c1ccccc1)c1ccccc1 [Example 49, N-(2-{2-[(2R,5R)-5-({[(4-aminophenyl)sulfonyl]amino}methyl)morpholin-2-yl]ethyl}phenyl)-Nα-(methoxy-carbonyl)-β-phenyl-L-phenylalaninamide]	94	–
COC(=O)N[C@H](C(=O)Nc1ccccc1CC[C@@H]1CN[C@H](CCc2ccccc2NC(=O)CCc2ccccc2)CO1)C(c1ccccc1)c1ccccc1 [Example 71, methyl N-[(1S)-1-benzhydryl-2-oxo-2-[[2-[2-[(2R,5R)-5-[2-[2-(3-phenylpropanoylamino)phenyl]ethyl]morpholin-2-yl]ethyl]phenyl]amino]ethyl]carbamate]	1.3	–
COC(=O)N[C@H](C(=O)Nc1ccccc1CC[C@@H]1CN[C@H](COC(=O)NCC(F)(F)F)CO1)C(c1ccccc1)c1ccccc1 [Example 17, methyl N-[(1S)-1-benzhydryl-2-oxo-2-[[2-[2-[(2R,5S)-5-(2,2,2-trifluoroethylcarbamoyloxymethyl)morpholin-2-yl]ethyl]phenyl]amino]ethyl]carbamate]	27	–
COC(=O)N[C@H](C(=O)Nc1ccccc1CC[C@@H]1CN[C@H](CNS(=O)(=O)c2cccc(C(F)(F)F)n2)CO1)C(c1ccccc1)c1ccccc1 [Example 46, methyl N-[(1S)-1-benzhydryl-2-oxo-2-[[2-[2-[(2R,5R)-5-[[[6-(trifluoromethyl)-2-pyridyl]sulfonylamino]methyl]morpholin-2-yl]ethyl]phenyl]amino]ethyl]carbamate]	50	–
CS(=O)(=O)CC[C@@H]1CO[C@H](COc2c(F)cccc2NC(=O)[C@@H](N)C(c2ccccc2)c2ccccc2)CN1 [Example 232, N-[3-fluoro-2-({(2S,5R)-5-[2-(methylsulfonyl)ethyl]morpholin-2-yl}methoxy)phenyl]-β-phenyl-L-phenylalaninamide]	150	–
COC(=O)N[C@H](C(=O)Nc1ccccc1CC[C@@H]1CN[C@H](C(=O)NNc2ccccc2)CO1)C(c1ccccc1)c1ccccc1 [Example 9, Nα-(methoxycarbonyl)-β-phenyl-N-[2-(2-{(2R,5S)-5-[(2-phenylhydrazinyl)carbonyl]morpholin-2-yl}ethyl)phenyl]-L-phenylalaninamide]	88	–
N[C@@H](Cc1cccc2ccccc12)C(=O)Nc1cncc(F)c1CC[C@@H]1CN[C@H](COC(=O)NCC(F)(F)F)CO1 [Example 190, {(3S,6R)-6-[2-(3-{[(2S)-2-amino-3-naphthalen-1-ylpropanoyl]amino}-5-fluoropyridin-4-yl)ethyl]morpholin-3-yl}methyl (2,2,2-trifluoroethyl)carbamate (non-preferred name)]	510	–
N[C@H](C(=O)Nc1cncc(F)c1CC[C@@H]1CN[C@H](COC(=O)N[C@@H]2COC[C@@H]2F)CO1)C(c1ccc(F)cc1)c1ccc(F)cc1 [Example 211]	12	–
COC(=O)N[C@H](C(=O)Nc1ccccc1CC[C@@H]1CN[C@H](COC(=O)N[C@H]2CO[C@H]3OCC[C@H]32)CO1)C(c1ccccc1)c1ccccc1 [Example 13, N-(2-{2-[(2R,5S)-5-({[(3R,3aS,6aR)-hexahydrofuro[2,3-b]furan-3-ylcarbamoyl]oxy}methyl)morpholin-2-yl]ethyl}phenyl)-Nα-(methoxycarbonyl)-β-phenyl-L-phenylalaninamide]	–	110
COC(=O)N[C@H](C(=O)Nc1ccccc1CC[C@@H]1CN[C@H](COC(=O)NCC(F)F)CO1)C(c1ccccc1)c1ccccc1 [Example 24, methyl N-[(1S)-1-benzhydryl-2-[[2-[2-[(2R,5S)-5-(2,2-difluoroethylcarbamoyloxymethyl)morpholin-2-yl]ethyl]phenyl]amino]-2-oxo-ethyl]carbamate]	85	–
COC(=O)N[C@H](C(=O)Nc1ccccc1CC[C@@H]1CN[C@H](C(=O)NS(=O)(=O)c2ccccc2)CO1)C(c1ccccc1)c1ccccc1 [Example 10, Nα-(methoxycarbonyl)-β-phenyl-N-[2-(2-{(2R,5S)-5-[(phenylsulfonyl)carbamoyl]morpholin-2-yl}ethyl)phenyl]-L-phenylalaninamide]	17	–
COC(=O)N[C@H](C(=O)Nc1ccccc1CC[C@@H]1CN[C@H](CNC(=O)Nc2ccccc2)CO1)C(c1ccccc1)c1ccccc1 [Example 40, N-α-(methoxycarbonyl)-β-phenyl-N-(2-{2-[(2R,5R)-5-{[(phenylcarbamoyl)amino]methyl}morpholin-2-yl]ethyl}phenyl)-L-phenylalaninamide]	52	–
COC(=O)N[C@H](C(=O)Nc1ccccc1CC[C@@H]1CN[C@H](CNC(=O)OC2CCOC2)CO1)C(c1ccccc1)c1ccccc1 (stereo partly drawn) [Example 84, Nα-(methoxycarbonyl)-β-phenyl-N-(2-{2-[(2R,5R)-5-({[(tetrahydrofuran-3-yloxy)carbonyl]amino}methyl)morpholin-2-yl]ethyl}phenyl)-L-phenylalaninamide]	670	–
COC(=O)N[C@H](C(=O)Nc1ccccc1CC[C@@H]1CN[C@H](CNC(=O)Cc2ccccc2)CO1)C(c1ccccc1)c1ccccc1 [Example 53, Nα-(methoxycarbonyl)-β-phenyl-N-(2-{2-[(2R,5R)-5-{[(phenylacetyl)amino]methyl}morpholin-2-yl]ethyl}phenyl)-L-phenylalaninamide]	12	–
N[C@H](C(=O)Nc1cncc(F)c1CC[C@@H]1CN[C@H](COC(=O)NCC2CCS(=O)(=O)C2)CO1)C(c1ccc(F)cc1)c1ccc(F)cc1 (stereo partly drawn) [Example 209, N-[4-(2-{(2R,5S)-5-[({[(1,1-dioxidotetrahydrothiophen-3-yl)methyl]carbamoyl}oxy)methyl]morpholin-2-yl}ethyl)-5-fluoropyridin-3-yl]-4-fluoro-β-(4-fluorophenyl)-L-phenylalaninamide]	16	–
COC(=O)N[C@H](C(=O)Nc1ccccc1CC[C@@H]1CN[C@H](CNC(=O)Nc2cc[nH]n2)CO1)C(c1ccccc1)c1ccccc1 [Example 43, methyl N-[(1S)-1-benzhydryl-2-oxo-2-[[2-[2-[(2R,5R)-5-[(1H-pyrazol-3-ylcarbamoylamino)methyl]morpholin-2-yl]ethyl]phenyl]amino]ethyl]carbamate]	96	–
COC(=O)N[C@H](C(=O)Nc1cccc(F)c1CC[C@@H]1CN[C@H](COC(=O)NCC(F)(F)F)CO1)[C@@H](c1ccc(Cl)c(F)c1)C1CCOCC1 [Example 129, (βR)-4-Chloro-3-fluoro-N-(3-fluoro-2-{2-[(2R,5S)-5-({[(2,2,2-trifluoroethyl)carbamoyl]oxy}methyl)morpholin-2-yl]ethyl}phenyl)-Nα-(methoxycarbonyl)-β-(tetrahydro-2H-pyran-4-yl)-L-phenylalaninamide]	8.6	–
